Measured values reported in publication PMC3025705 (European journal of nuclear medicine and molecular imaging, 2010).

Test system: human sst2 receptor
Test: Immunofluorescence microscopy based sst2 internalization assay
Assay type: cell-based
Conditions: HEK-sst2 cells, 30 min at 37°C, 10 nM

Tyr^3-octreotide [TOC]
sst2 internalization by positive control: sub-maximal internalization effect
